From the supplement of paper PMC10307832

Compound: CC1=CC(=C(N1C2=CC=C(C=C2)Cl)C)C(=O)CN3CCCCC3 [IU1-47] + O=C(CCCCCCC(=O)Nc1ccccc1)NO [Vorinostat] (partner 1 µM)
Test: relative viability (nuclei count vs DMSO), 5 days (fraction); higher = more cells survive
Settings: first compound 0.08 µM
Method in brief: (§1)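 Values are medians from duplicate plates. Each reflects relative viability, defined as the nuclei count of treated wells over that of vehicle wells. Lung cancer cell lines in 1536-well plates were pin-tool dosed one day after seeding with one drug alone or with a fixed anchor-drug dose plus five library-drug doses (not always all listed) in √10 steps, then fixed, stained and imaged at 4× after 5 days.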

First: RERF-LC-KJ
Second: ABC-1
The relative viability of the first is lower: 0.743 for the first, 1.32 for the second.

Going from NCI-H358 to NCI-H650, the relative viability falls from 0.828 to 0.61.

PC-3 [JPC-3] gave a relative viability of 0.857.

Same assay, conditions: first compound 0.253 µM

First: RERF-LC-KJ
Second: ABC-1
The relative viability of the first is lower: 0.749 for the first, 1.08 for the second.

First: NCI-H358
Second: NCI-H650
The relative viability of the first is higher: 0.708 for the first, 0.562 for the second.

With PC-3 [JPC-3] the relative viability was 1.04.

Same assay, conditions: first compound 0.8 µM

Compared with RERF-LC-KJ, ABC-1 is higher in relative viability: 0.749 for the first, 0.987 for the second.

Going from NCI-H358 to NCI-H650, the relative viability falls from 0.72 to 0.451.

PC-3 [JPC-3] gave a relative viability of 0.772.

Same assay, conditions: first compound 2.53 µM

Going from RERF-LC-KJ to NCI-H358, the relative viability rises from 0.604 to 0.781.

First: NCI-H650
Second: PC-3 [JPC-3]
The relative viability of the first is lower: 0.37 for the first, 0.691 for the second.

Same assay, conditions: first compound 8 µM

First: RERF-LC-KJ
Second: ABC-1
The relative viability of the first is lower: 0.605 for the first, 1.06 for the second.

First: NCI-H358
Second: NCI-H650
The relative viability of the first is higher: 0.619 for the first, 0.483 for the second.

PC-3 [JPC-3] was tested, and the relative viability was 0.972.

Compound: CC1=CC(=C(N1C2=CC=C(C=C2)Cl)C)C(=O)CN3CCCCC3 [IU1-47] + CCNC(=O)c1noc(-c2cc(C(C)C)c(O)cc2O)c1-c1ccc(CN2CCOCC2)cc1 [Luminespib] (partner 0.01 µM)
Test: as above
Settings: first compound 0.08 µM
Method in brief: as §1

First: RERF-LC-KJ
Second: ABC-1
The relative viability of the first is higher: 1.22 for the first, 0.957 for the second.

Compared with NCI-H358, NCI-H650 is higher in relative viability: 0.366 for the first, 0.849 for the second.

Cell Line PC-3 [JPC-3] has a relative viability of 0.822.

Same assay, conditions: first compound 0.253 µM

First: RERF-LC-KJ
Second: ABC-1
The relative viability of the first is higher: 1.3 for the first, 1.01 for the second.

First: NCI-H358
Second: NCI-H650
The relative viability of the first is lower: 0.328 for the first, 0.81 for the second.

In the case of PC-3 [JPC-3], the relative viability is reported as 0.695.

Same assay, conditions: first compound 0.8 µM

Compared with RERF-LC-KJ, ABC-1 is lower in relative viability: 1.34 for the first, 1.02 for the second.

Going from NCI-H358 to NCI-H650, the relative viability rises from 0.347 to 0.831.

With PC-3 [JPC-3] the relative viability was 0.723.

Same assay, conditions: first compound 2.53 µM

Compared with RERF-LC-KJ, NCI-H358 is lower in relative viability: 1.24 for the first, 0.3 for the second.

Compared with NCI-H650, PC-3 [JPC-3] is lower in relative viability: 0.671 for the first, 0.466 for the second.

Same assay, conditions: first compound 8 µM

Compared with RERF-LC-KJ, ABC-1 is lower in relative viability: 1.39 for the first, 0.733 for the second.

First: NCI-H358
Second: NCI-H650
The relative viability of the first is lower: 0.349 for the first, 0.828 for the second.

Work on PC-3 [JPC-3] yielded a relative viability of 0.603.

Compound: CC1=CC(=C(N1C2=CC=C(C=C2)Cl)C)C(=O)CN3CCCCC3 [IU1-47] + Cc1nc(Nc2ncc(C(=O)Nc3c(C)cccc3Cl)s2)cc(N2CCN(CCO)CC2)n1 [Dasatinib] (partner 0.075 µM)
Test: as above
Settings: first compound 0.08 µM
Method in brief: as §1

Compared with RERF-LC-KJ, ABC-1 is lower in relative viability: 0.926 for the first, 0.696 for the second.

Compared with NCI-H358, NCI-H650 is higher in relative viability: 0.147 for the first, 0.457 for the second.

PC-3 [JPC-3] gave a relative viability of 1.01.

Same assay, conditions: first compound 0.253 µM

Going from RERF-LC-KJ to ABC-1, the relative viability falls from 0.947 to 0.603.

Going from NCI-H358 to NCI-H650, the relative viability rises from 0.142 to 0.439.

PC-3 [JPC-3] was tested, and the relative viability was 1.02.

Same assay, conditions: first compound 0.8 µM

Going from RERF-LC-KJ to ABC-1, the relative viability falls from 0.817 to 0.615.

First: NCI-H358
Second: NCI-H650
The relative viability of the first is lower: 0.156 for the first, 0.476 for the second.

For PC-3 [JPC-3], the relative viability was 0.982.

Same assay, conditions: first compound 2.53 µM

First: RERF-LC-KJ
Second: NCI-H358
The relative viability of the first is higher: 0.877 for the first, 0.168 for the second.

Compared with NCI-H650, PC-3 [JPC-3] is higher in relative viability: 0.427 for the first, 0.956 for the second.

Same assay, conditions: first compound 8 µM

First: RERF-LC-KJ
Second: ABC-1
The relative viability of the first is higher: 0.781 for the first, 0.542 for the second.

Going from NCI-H358 to NCI-H650, the relative viability rises from 0.211 to 0.445.

For PC-3 [JPC-3], the relative viability was 0.788.

Compound: Cc1nc(C(=O)NCC(=O)O)c(O)c2ccc(Oc3ccccc3)cc12 [FG-4592] + Cc1cc(Nc2cc(N3CCN(C)CC3)nc(Sc3ccc(NC(=O)C4CC4)cc3)n2)n[nH]1 [Tozasertib] (partner 0.1 µM)
Test: as above
Settings: first compound 0.08 µM
Method in brief: as §1

Going from RERF-LC-KJ to ABC-1, the relative viability falls from 0.485 to 0.177.

Going from NCI-H358 to NCI-H650, the relative viability rises from 0.106 to 0.73.

With PC-3 [JPC-3] the relative viability was 0.872.

Same assay, conditions: first compound 0.253 µM

Going from RERF-LC-KJ to ABC-1, the relative viability falls from 0.448 to 0.178.

Going from NCI-H358 to NCI-H650, the relative viability rises from 0.111 to 0.703.

PC-3 [JPC-3] gave a relative viability of 0.854.

Same assay, conditions: first compound 0.8 µM

Compared with RERF-LC-KJ, ABC-1 is lower in relative viability: 0.578 for the first, 0.148 for the second.

First: NCI-H358
Second: NCI-H650
The relative viability of the first is lower: 0.115 for the first, 0.746 for the second.

With PC-3 [JPC-3] the relative viability was 0.935.

Same assay, conditions: first compound 2.53 µM

Compared with RERF-LC-KJ, ABC-1 is lower in relative viability: 0.543 for the first, 0.187 for the second.

Compared with NCI-H358, NCI-H650 is higher in relative viability: 0.113 for the first, 0.691 for the second.

With PC-3 [JPC-3] the relative viability was 0.901.

Same assay, conditions: first compound 8 µM

First: RERF-LC-KJ
Second: ABC-1
The relative viability of the first is higher: 0.463 for the first, 0.149 for the second.

Going from NCI-H358 to NCI-H650, the relative viability rises from 0.091 to 0.697.

For PC-3 [JPC-3], the relative viability was 0.854.
